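Step 1: Grow cells in 96-well plates. Step 2: Expose to compound for 48 hours at 5 concentrations. Step 3: Interpolate endpoints linearly; if unreached, use highest concentration. GI50 is the concentration that inhibits growth by half.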 Activity calls are given as the source filed them. No stated cut-off is given here; in the data, active = GI50 up to about 1.1 µM and inactive = higher.
What was measured:
Experiment in all cases: DTP human tumour cell line panel, 48 h
[1] = tested on: HCT-15
[2] = tested on: LOX IMVI
[3] = tested on: A498
[4] = tested on: SF-295
[5] = tested on: SK-MEL-28
[6] = tested on: NCI/ADR-RES
[7] = tested on: RXF 393
[8] = tested on: NCI-H522
[9] = tested on: SN12C
[10] = tested on: HT-29
[11] = tested on: K562
[12] = tested on: M14
[13] = tested on: NCI-H226
[14] = tested on: RPMI-8226
[15] = tested on: CCRF-CEM
[16] = tested on: SNB-75
[17] = tested on: SK-MEL-5
[18] = tested on: NCI-H23
[19] = tested on: SR
[20] = tested on: DU-145

| Compound | GI50 [1] [µM] | GI50 [2] | GI50 [3] | GI50 [4] | GI50 [5] | GI50 [6] | GI50 [7] | GI50 [8] | GI50 [9] | GI50 [10] | GI50 [11] | GI50 [12] | GI50 [13] | GI50 [14] | GI50 [15] | GI50 [16] | GI50 [17] | GI50 [18] | GI50 [19] | GI50 [20] |
| --- | --- | --- | --- | --- | --- | --- | --- | --- | --- | --- | --- | --- | --- | --- | --- | --- | --- | --- | --- | --- |
| C/C(=N/NC(=S)Nc1ccc([N+](=O)[O-])cc1)c1cccc(/C(C)=N\NC(=S)Nc2ccc([N+](=O)[O-])cc2)n1 | 0.125 | 0.313 µM (active) | 1.09 µM (active) | 0.564 µM (active) | > 100 µM (inactive) | 0.469 µM (active) | 0.53 µM (active) | 0.628 µM (active) | 0.671 µM (active) | 0.628 µM (active) | 0.569 µM (active) | 0.321 µM (active) | 0.193 µM (active) | 0.491 µM (active) | 0.318 µM (active) | 3.3 µM (inactive) | 0.353 µM (active) | 0.877 µM (active) | 0.216 µM (active) | – |
| CCCNC(=O)NNC(=O)c1c[nH]c2nc(C)ccc2c1=O | > 100 | > 100 µM (inactive) | > 100 µM (inactive) | > 100 µM (inactive) | > 100 µM (inactive) | > 100 µM (inactive) | > 100 µM (inactive) | > 100 µM (inactive) | > 100 µM (inactive) | > 100 µM (inactive) | > 100 µM (inactive) | > 100 µM (inactive) | > 100 µM (inactive) | > 100 µM (inactive) | > 100 µM (inactive) | – | > 100 µM (inactive) | > 100 µM (inactive) | – | > 100 µM (inactive) |
| O=S(=O)(O)c1cc(/N=N/c2c(O)ccc3ccccc23)cc2c(S(=O)(=O)O)cccc12 | > 100 | – | > 100 µM (inactive) | > 100 µM (inactive) | > 100 µM (inactive) | > 100 µM (inactive) | > 100 µM (inactive) | > 100 µM (inactive) | – | > 100 µM (inactive) | > 100 µM (inactive) | > 100 µM (inactive) | > 100 µM (inactive) | > 100 µM (inactive) | > 100 µM (inactive) | > 100 µM (inactive) | > 100 µM (inactive) | – | > 100 µM (inactive) | – |
| COc1cc(C/C=C/c2ccccc2)c(OC)cc1O [VIOLASTYRENE] | 17.9 | 17.7 µM (inactive) | 80.4 µM (inactive) | – | 18.7 µM (inactive) | 26.5 µM (inactive) | – | 20.9 µM (inactive) | 19.1 µM (inactive) | 20.9 µM (inactive) | 15.6 µM (inactive) | 19.2 µM (inactive) | 24.5 µM (inactive) | 15.6 µM (inactive) | 17.1 µM (inactive) | 24.6 µM (inactive) | 23.7 µM (inactive) | 21.3 µM (inactive) | – | 17.3 µM (inactive) |
| O=[N+]([O-])C1C2C=CC(C2)[C@H]1c1ccc(Cl)cc1Cl (some centres not stated) | 43.3 | 29.7 µM (inactive) | 55 µM (inactive) | 24.8 µM (inactive) | 19.7 µM (inactive) | – | 20.9 µM (inactive) | > 10 µM (inactive) | 67 µM (inactive) | 21.4 µM (inactive) | 35.4 µM (inactive) | > 10 µM (inactive) | 49 µM (inactive) | 24.9 µM (inactive) | 39.4 µM (inactive) | 11.4 µM (inactive) | 4.36 µM (inactive) | 36.7 µM (inactive) | 35.7 µM (inactive) | – |
| CC(CN1CCN(CC(C)Nc2ccnc3cc(Cl)ccc23)CC1)Nc1ccnc2cc(Cl)ccc12 (configuration not stated) | 15.7 | 3.76 µM (inactive) | 18 µM (inactive) | 19.6 µM (inactive) | 1.6 µM (inactive) | – | 13.2 µM (inactive) | 20.7 µM (inactive) | 22.4 µM (inactive) | 6.93 µM (inactive) | 2.84 µM (inactive) | 14.5 µM (inactive) | 28.4 µM (inactive) | 9.79 µM (inactive) | 3.69 µM (inactive) | 16.9 µM (inactive) | 17.5 µM (inactive) | 18.6 µM (inactive) | 1.83 µM (inactive) | – |
| N#CC(C#N)=Cc1ccc(Oc2ccccc2)cc1 | 70.5 | 15.8 µM (inactive) | > 100 µM (inactive) | 22.2 µM (inactive) | 15.8 µM (inactive) | – | 30.5 µM (inactive) | 23.7 µM (inactive) | 14.1 µM (inactive) | 22.4 µM (inactive) | 26.7 µM (inactive) | 22.2 µM (inactive) | > 43.9 µM (inactive) | 18.1 µM (inactive) | 23.8 µM (inactive) | 25.1 µM (inactive) | 24.5 µM (inactive) | 23.6 µM (inactive) | 41.3 µM (inactive) | – |
| CN(c1ccc(Cl)cc1)S(=O)(=O)c1ccc([N+](=O)[O-])cc1 | > 100 | > 100 µM (inactive) | – | > 100 µM (inactive) | > 100 µM (inactive) | > 100 µM (inactive) | > 100 µM (inactive) | > 100 µM (inactive) | > 100 µM (inactive) | > 100 µM (inactive) | > 100 µM (inactive) | > 100 µM (inactive) | > 100 µM (inactive) | > 100 µM (inactive) | > 100 µM (inactive) | > 100 µM (inactive) | 26 µM (inactive) | > 100 µM (inactive) | – | > 100 µM (inactive) |

Reference: ChEMBL document CHEMBL1201862, “PubChem BioAssay data set” (2004)
